# What was measured:
# [1] = target: Matrix metalloproteinase-9 (Homo sapiens, UniProt P14780); experiment: Inhibition of Matrix metalloprotease-9
# [2] = target: T1, Interstitial collagenase (Homo sapiens, UniProt P03956); experiment: Inhibition of Matrix metalloprotease-1
# T1 sequence (P03956 whole entry): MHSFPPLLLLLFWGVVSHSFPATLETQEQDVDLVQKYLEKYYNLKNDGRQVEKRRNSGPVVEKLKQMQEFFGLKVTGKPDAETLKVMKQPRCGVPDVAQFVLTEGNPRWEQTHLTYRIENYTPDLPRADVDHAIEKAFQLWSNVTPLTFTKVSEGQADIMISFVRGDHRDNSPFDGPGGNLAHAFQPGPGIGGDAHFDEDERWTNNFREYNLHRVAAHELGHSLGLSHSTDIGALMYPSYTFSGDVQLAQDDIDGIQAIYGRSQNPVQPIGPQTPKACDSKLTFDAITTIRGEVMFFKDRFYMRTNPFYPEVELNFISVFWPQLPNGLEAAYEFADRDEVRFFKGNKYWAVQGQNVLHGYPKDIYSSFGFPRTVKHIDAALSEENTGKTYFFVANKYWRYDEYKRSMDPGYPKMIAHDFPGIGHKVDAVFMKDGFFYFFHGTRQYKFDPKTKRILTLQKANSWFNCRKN
# [3] = target: T2, Matrilysin (Homo sapiens, UniProt P09237); experiment: Inhibition of Matrix metalloprotease-7
# T2 sequence (P09237 whole entry): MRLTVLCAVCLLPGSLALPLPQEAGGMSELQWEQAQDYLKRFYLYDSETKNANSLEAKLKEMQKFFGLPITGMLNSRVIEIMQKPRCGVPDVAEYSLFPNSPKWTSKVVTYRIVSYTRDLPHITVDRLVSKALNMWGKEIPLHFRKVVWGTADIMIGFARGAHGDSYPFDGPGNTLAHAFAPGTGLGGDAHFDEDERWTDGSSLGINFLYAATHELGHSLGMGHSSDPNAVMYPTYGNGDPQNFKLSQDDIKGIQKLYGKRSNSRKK
# [4] = target: Stromelysin-1 (Homo sapiens, UniProt P08254); experiment: Inhibition of Matrix metalloprotease-3
# Sequence of Stromelysin-1 (P08254 whole entry): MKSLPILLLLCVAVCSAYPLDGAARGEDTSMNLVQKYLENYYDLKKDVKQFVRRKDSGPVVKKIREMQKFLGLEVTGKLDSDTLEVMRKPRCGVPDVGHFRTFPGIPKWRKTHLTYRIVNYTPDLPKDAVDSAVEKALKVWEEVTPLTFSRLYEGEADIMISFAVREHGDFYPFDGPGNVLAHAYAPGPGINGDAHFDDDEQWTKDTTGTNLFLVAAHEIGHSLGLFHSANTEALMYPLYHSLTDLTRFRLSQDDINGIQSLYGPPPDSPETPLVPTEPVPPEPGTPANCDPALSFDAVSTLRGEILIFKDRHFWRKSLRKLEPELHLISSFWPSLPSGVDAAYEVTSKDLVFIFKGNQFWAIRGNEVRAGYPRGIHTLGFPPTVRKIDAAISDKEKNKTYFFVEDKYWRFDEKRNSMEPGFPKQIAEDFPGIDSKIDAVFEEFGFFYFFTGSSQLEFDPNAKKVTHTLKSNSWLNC
# Sequence of Matrix metalloproteinase-9 (P14780 whole entry): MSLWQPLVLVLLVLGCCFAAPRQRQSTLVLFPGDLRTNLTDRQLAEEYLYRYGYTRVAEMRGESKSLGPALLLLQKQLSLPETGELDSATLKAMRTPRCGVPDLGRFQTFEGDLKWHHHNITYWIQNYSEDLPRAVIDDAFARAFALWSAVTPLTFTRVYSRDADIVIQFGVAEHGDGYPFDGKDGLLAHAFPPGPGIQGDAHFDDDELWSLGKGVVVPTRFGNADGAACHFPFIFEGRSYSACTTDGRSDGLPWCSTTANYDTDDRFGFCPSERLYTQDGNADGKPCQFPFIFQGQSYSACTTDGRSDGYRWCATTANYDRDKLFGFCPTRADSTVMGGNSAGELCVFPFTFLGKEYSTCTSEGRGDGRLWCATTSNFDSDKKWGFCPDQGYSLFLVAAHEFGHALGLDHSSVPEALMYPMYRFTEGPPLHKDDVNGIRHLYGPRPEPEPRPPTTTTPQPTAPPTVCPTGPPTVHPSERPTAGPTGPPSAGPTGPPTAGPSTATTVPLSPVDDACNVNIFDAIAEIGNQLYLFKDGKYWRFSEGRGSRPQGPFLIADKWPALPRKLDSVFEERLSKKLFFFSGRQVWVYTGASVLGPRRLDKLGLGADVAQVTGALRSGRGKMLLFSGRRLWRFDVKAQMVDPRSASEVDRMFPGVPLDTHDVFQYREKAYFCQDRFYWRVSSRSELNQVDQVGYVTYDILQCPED
IC50 [1],IC50 [2],IC50 [3],IC50 [4],Structure (SMILES)
2.7 nM,24 nM,30 nM,,COc1ccc(S(=O)(=O)N2CC(C)(C)CN(S(=O)(=O)c3ccc(OC)cc3)C2C(=O)NO)cc1
4.7 nM,51 nM,366 nM,41 nM,COc1ccc(S(=O)(=O)N2CC(O)CN(S(=O)(=O)c3ccc(OC)cc3)C2C(=O)NO)cc1 (stereo not drawn)
15.6 nM,79 nM,123 nM,19.5 nM,COc1ccc(S(=O)(=O)N2CC3(CN(S(=O)(=O)c4ccc(OC)cc4)C2C(=O)NO)SCCCS3)cc1
101 nM,,716 nM,22 nM,CCCCOc1ccc(S(=O)(=O)N2CC(C)(C)CN(S(=O)(=O)c3ccc(OCCCC)cc3)C2C(=O)NO)cc1

# The next lines start with the compound.
Structure (SMILES),IC50 [1],IC50 [2],IC50 [3],IC50 [4]
COc1ccc(S(=O)(=O)N2CCCCN(S(=O)(=O)c3ccc(OC)cc3)C2C(=O)NO)cc1,,827 nM,,1290 nM
COc1ccc(S(=O)(=O)N2CCN(S(=O)(=O)c3ccc(OC)cc3)C2C(=O)NO)cc1,,4650 nM,,1060 nM
COc1ccc(S(=O)(=O)N2CCCN(S(=O)(=O)c3ccc(OC)cc3)C2C(=O)NO)cc1,3.9 nM,79 nM,460 nM,33 nM
COc1ccc(S(=O)(=O)N(Cc2cccnc2)[C@@H](C(=O)NO)C(C)C)cc1 [CGS-27023A],,,106 nM,

# Reference: ChEMBL document CHEMBL1131091, “Discovery of potent, achiral matrix metalloproteinase inhibitors” (J Med Chem, 1998)
